Results: US20230122344A1, “ANTAGONISTS OF THE MUSCARINIC ACETYLCHOLINE RECEPTOR M4” (Vanderbilt University, priority 2019, published 2023)

Target: T1, Human M4 (Homo sapiens, UniProt P08173)
T1 construct: expressed in transfected cells; host or cells: CHO-K1 (ATCC), co-transfected with chimeric G protein Gqi5
T1 sequence (P08173 1-479): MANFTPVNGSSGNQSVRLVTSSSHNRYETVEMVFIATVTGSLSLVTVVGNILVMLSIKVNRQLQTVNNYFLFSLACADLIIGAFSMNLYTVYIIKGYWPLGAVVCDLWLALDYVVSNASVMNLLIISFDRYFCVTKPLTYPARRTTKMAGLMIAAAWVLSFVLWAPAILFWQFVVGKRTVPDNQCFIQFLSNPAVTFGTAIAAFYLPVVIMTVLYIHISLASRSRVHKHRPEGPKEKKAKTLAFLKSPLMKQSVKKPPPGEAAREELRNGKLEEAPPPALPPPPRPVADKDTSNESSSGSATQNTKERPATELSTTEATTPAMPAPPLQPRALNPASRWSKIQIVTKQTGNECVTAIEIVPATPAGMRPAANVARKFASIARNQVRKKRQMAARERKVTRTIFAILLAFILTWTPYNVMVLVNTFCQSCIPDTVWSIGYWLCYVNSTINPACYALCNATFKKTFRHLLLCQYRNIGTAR
Experiment: mAChR M4 cell-based functional assay (calcium flux, antagonism of EC80 acetylcholine response)
Conditions: M4/Gqi5/CHO-K1 cells; for remaining activity at 30 µM: CHO-K1, % ACh maximum at 30 μM, read-out: Human M4 Emin; for IC50: decrease of response elicited by EC80 acetylcholine
Protocol: Human or rat M4 cDNA, along with the chimeric G protein Gqi5, were transfected into Chinese hamster ovary (CHO-K1) cells purchased from the American Type Culture Collection using Lipofectamine2000. M4/Gqi5/CHO cells were grown in Ham's F-12 medium containing 10% heat-inactivated fetal bovine serum (FBS), 20 mM HEPES, 500 μg/mL G418 sulfate, and 200 μg/mL Hygromycin B.
For high throughput measurement of agonist-evoked increases in intracellular calcium, CHO-K1 cells stably expressing muscarinic receptors were plated in growth medium lacking G418 and hygromycin at 15,000 cells/20 μL/well in Greiner 384-well black-walled, tissue culture (TC)-treated, clear-bottom plates (VWR). Cells were incubated overnight at 37° C. and 5% CO2. The next day, cells were washed using an ELX 405 (BioTek) with assay buffer; the final volume was then aspirated to 20 μL. Next, 20 μL of a 2.3 μM stock of Fluo-4/acetoxymethyl ester (Invitrogen, Carlsbad, Calif.), prepared as a 2.3 mM stock in DMSO and mixed in a 1:1 ratio with 10% (w/v) Pluronic F-127 and diluted in assay buffer, was added to the wells and the cell plates were incubated for 50 min at 37° C. and 5% CO2. Dye was removed by washing with the ELX 405 and the final volume was aspirated to 20 μL. Compound master plates were formatted in a 10 point concentration-response curve (CRC) format (1:3 dilutions) in 100% DMSO with a starting concentration of 10 or 1 mM using a BRAVO liquid handler (Agilent). Test compound CRCs were then transferred to daughter plates (240 nL) using the Echo acoustic plate reformatter (Labcyte, Sunnyvale, Calif.) and then diluted into assay buffer (40 μL) to a 2× stock using a Thermo Fisher Combi (Thermo Fisher Scientific, Waltham, Mass.).
Calcium flux was measured using the Functional Drug Screening System (FDSS) 6000 or 7000 (Hamamatsu Corporation, Tokyo, Japan) as an increase in the fluorescent static ratio. Compounds were applied to cells (20 μL, 2×) using the automated system of the FDSS at 2 seconds into the protocol and the data were collected at 1 Hz. At 143 s, 10 μL of an EC20 concentration of the muscarinic receptor agonist acetylcholine was added (5×), followed by the addition of 12 μL of an EC80 concentration of acetylcholine at the 268 s time point (5×). Agonist activity was analyzed as a concentration-dependent increase in calcium mobilization upon compound addition. Positive allosteric modulator activity was analyzed as a concentration-dependent increase in the EC20 acetylcholine response. Antagonist activity was analyzed as a concentration-dependent decrease in the EC80 acetylcholine response; for the purposes of the tables herein, an IC50 (inhibitory concentration 50) was calculated as a concentration-dependent decrease of the response elicited by an EC80 concentration of acetylcholine. Concentration-response curves were generated using a four-parameter logistical equation in XLFit curve fitting software (IDBS, Bridgewater, N.J.) for Excel (Microsoft, Redmond, Wash.) or Prism (GraphPad Software, Inc., San Diego, Calif.) or the Dotmatics software platform (Dotmatics, Bishop's Stortford, UK).
Compounds were synthesized as described above. Activity (IC50 and Emin) was determined in the mAChR M4 cell-based functional assay as described above and the data are shown in Table 2.

SMILES | remaining activity at 30 µM [%] | IC50 [nM] | Human M4 Emin (% ACh maximum at 30 μM) [%]
Cc1c(-c2cccc(F)c2)nnc(N[C@H]2C[C@@H]3CN(CC4CCOCC4)C[C@@H]3C2)c1C#N [compound 69, 6-(3-fluorophenyl)-5-methyl-3-(((3aR,5s,6aS)-2-((tetrahydro-2H-pyran-4-yl)methyl)octahydrocyclopenta[c]pyrrol-5-yl)amino)pyridazine-4-carbonitrile] | 3 | 8.42 | –
OC1(CN2C[C@H]3C[C@H](Nc4cc(C(F)F)c(-c5cc(F)cc(F)c5F)nn4)C[C@H]3C2)CCCCC1 [compound 54, 1-(((3aR,5s,6aS)-5-((5-(difluoromethyl)-6-(2,3,5-trifluorophenyl)pyridazin-3-yl)amino)hexahydrocyclopenta[c]pyrrol-2(1H)-yl)methyl)cyclohexan-1-ol] | 1 | 3.42 | –
COc1ccc(F)cc1-c1cc(C(F)F)c(N[C@H]2C[C@@H]3CN(CC4CCOCC4)C[C@@H]3C2)nn1 [compound 85, (3aR,5s,6aS)-N-(4-(difluoromethyl)-6-(5-fluoro-2-methoxyphenyl)pyridazin-3-yl)-2-((tetrahydro-2H-pyran-4-yl)methyl)octahydrocyclopenta[c]pyrrol-5-amine] | 4 | 11 | –
[2H]C([2H])(C1CCOCC1)N1C[C@H]2C[C@H](Nc3nnc(-c4cc(F)cc(F)c4F)cc3C3CC3)C[C@H]2C1 [compound 34, (3aR,5s,6aS)-N-(4-cyclopropyl-6-(2,3,5-trifluorophenyl)pyridazin-3-yl)-2-((tetrahydro-2H-pyran-4-yl)methyl-d2)octahydrocyclopenta[c]pyrrol-5-amine] | 2 | 5.05 | –
[2H]C([2H])(C1CCOCC1)N1C[C@H]2C[C@H](Nc3nnc(-c4ccccc4)c(C)c3C(F)(F)F)C[C@H]2C1 [compound 76, (3aR,5s,6aS)-N-(5-methyl-6-phenyl-4-(trifluoromethyl)pyridazin-3-yl)-2-((tetrahydro-2H-pyran-4-yl)methyl-d2)octahydrocyclopenta[c]pyrrol-5-amine] | 3 | 12.1 | –
Cc1c(-c2ccccc2F)nnc(N[C@H]2C[C@@H]3CN(CC4CCOCC4)C[C@@H]3C2)c1C#N [compound 68, 6-(2-fluorophenyl)-5-methyl-3-(((3aR,5s,6aS)-2-((tetrahydro-2H-pyran-4-yl)methyl)octahydrocyclopenta[c]pyrrol-5-yl)amino)pyridazine-4-carbonitrile] | 3 | 0.97 | –
COc1cc(-c2cc3cn(C)nc3cc2F)nnc1N[C@H]1C[C@@H]2CN(CC3CCOCC3)C[C@@H]2C1 [compound 6, (3aR,5s,6aS)-N-(6-(6-fluoro-2-methyl-2H-indazol-5-yl)-4-methoxypyridazin-3-yl)-2-((tetrahydro-2H-pyran-4-yl)methyl)octahydrocyclopenta[c]pyrrol-5-amine] | 4 | 44 | –
COc1cc(-c2cc(F)ccc2F)nnc1N[C@H]1C[C@@H]2CN(CC3CCOCC3)C[C@@H]2C1 [compound 4, (3aR,5s,6aS)-N-(6-(2,5-difluorophenyl)-4-methoxypyridazin-3-yl)-2-((tetrahydro-2H-pyran-4-yl)methyl)octahydrocyclopenta[c]pyrrol-5-amine] | 3 | 12 | –
Cc1cc(N[C@H]2C[C@@H]3CN(CC4CCOCC4)C[C@@H]3C2)nnc1-c1cc(F)cc(F)c1F [compound 35, (3aR,5s,6aS)-N-(5-methyl-6-(2,3,5-trifluorophenyl)pyridazin-3-yl)-2-((tetrahydro-2H-pyran-4-yl)methyl)octahydrocyclopenta[c]pyrrol-5-amine] | 3 | 0.5 | –
Cc1c(-c2cc(F)ccc2F)nnc(N[C@H]2C[C@@H]3CN(CC4CCOCC4)C[C@@H]3C2)c1C#N [compound 64, 6-(2,5-difluorophenyl)-5-methyl-3-(((3aR,5s,6aS)-2-((tetrahydro-2H-pyran-4-yl)methyl)octahydrocyclopenta[c]pyrrol-5-yl)amino)pyridazine-4-carbonitrile] | 3 | 7.69 | –
[2H]C([2H])(C1CCOCC1)N1C[C@H]2C[C@H](Nc3nnc(-c4cc(F)cc(F)c4F)cc3C(C)(F)F)C[C@H]2C1 [compound 45, (3aR,5s,6aS)-N-(4-(1,1-difluoroethyl)-6-(2,3,5-trifluorophenyl)pyridazin-3-yl)-2-((tetrahydro-2H-pyran-4-yl)methyl-d2)octahydrocyclopenta[c]pyrrol-5-amine] | 3 | 54.4 | –
[2H]C([2H])(C1CCOCC1)N1C[C@H]2C[C@H](Nc3cc(C)c(-c4ccc5nn(C)cc5c4)nn3)C[C@H]2C1 [compound 19, (3aR,5s,6aS)-N-(5-methyl-6-(2-methyl-2H-indazol-5-yl)pyridazin-3-yl)-2-((tetrahydro-2H-pyran-4-yl)methyl-d2)octahydrocyclopenta[c]pyrrol-5-amine] | 4 | 1.62 | –
COc1cc(-c2ccc(F)cc2)nnc1N[C@H]1C[C@@H]2CN(CC3CCOCC3)C[C@@H]2C1 [compound 3, (3aR,5s,6aS)-N-(6-(4-fluorophenyl)-4-methoxypyridazin-3-yl)-2-((tetrahydro-2H-pyran-4-yl)methyl)octahydrocyclopenta[c]pyrrol-5-amine] | 5 | 48.4 | –
COc1cc(-c2ccccc2F)nnc1N[C@H]1C[C@@H]2CN(CC3CCOCC3)C[C@@H]2C1 [compound 2, (3aR,5s,6aS)-N-(6-(2-fluorophenyl)-4-methoxypyridazin-3-yl)-2-((tetrahydro-2H-pyran-4-yl)methyl)octahydrocyclopenta[c]pyrrol-5-amine] | 3 | 10.5 | –
Fc1cc(F)c(F)c(-c2nnc(N[C@H]3C[C@@H]4CN(C[C@H]5COCCO5)C[C@@H]4C3)cc2C(F)F)c1 [compound 57, (3aR,5s,6aS)-2-(((S)-1,4-dioxan-2-yl)methyl)-N-(5-(difluoromethyl)-6-(2,3,5-trifluorophenyl)pyridazin-3-yl)octahydrocyclopenta[c]pyrrol-5-amine] | 3 | 15.5 | –
Fc1cc(F)c(F)c(-c2nnc(N[C@H]3C[C@@H]4CN(CC5CCCCO5)C[C@@H]4C3)cc2C(F)F)c1 (single isomer, unassigned) [compound 47] | – | 2.02 | 2
FC(F)c1cc(-c2ccccc2OC(F)(F)F)nnc1N[C@H]1C[C@@H]2CN(CC3CCOCC3)C[C@@H]2C1 [compound 86, (3aR,5s,6aS)-N-(4-(difluoromethyl)-6-(2-(trifluoromethoxy)phenyl)pyridazin-3-yl)-2-((tetrahydro-2H-pyran-4-yl)methyl)octahydrocyclopenta[c]pyrrol-5-amine] | 5 | 19 | –
